Test results reported in ChEMBL document CHEMBL1121558, “Studies on several 7-substituted N,N-dimethyltryptamines” (J Med Chem, 1980).

Legend:
[1] = biological target: Serotonin (5-HT) receptor; assay: Compound was evaluated for binding affinity towards 5-hydroxytryptamine receptor in isolated rat fundus preparation measured as pA2
[2] = organism: Rattus norvegicus; assay: Effective dose was determined for the behavioral (interoceptive cues) activity of rats; assay type: functional

Row | Compound | pA2 [1] | ED50 [2]
1 | COc1cc2c(CCN(C)C)c[nH]c2c(OC)c1OC | 5.98 | 
2 | COc1cc(OC)c2[nH]cc(CCN(C)C)c2c1 | 5.5 | 3.38 mg/kg
3 | Cc1cccc2c(CCN(C)C)c[nH]c12 | 6.29 | 
4 | COc1cc(C)c2[nH]cc(CCN(C)C)c2c1 | 6.61 | 1.54 mg/kg
5 | CCc1cccc2c(CCN(C)C)c[nH]c12 | 6.31 | 
6 | CN(C)CCc1c[nH]c2c(Br)cccc12 | 6.51 | 
7 | COc1ccc2c(CCN(C)C)c[nH]c2c1 |  | 0.4 mg/kg
8 | COc1ccc(OC)c(CC(C)N)c1 (stereo not given) |  | 0.59 mg/kg
